Measurements published in paper PMC8035211 (Nature Communications, 2021).
Read-outs that look alike come from different tables or passages of the source.

Tests used:
FgCelDH7C [1] = target: T1, FgCelDH7C (Fusarium graminearum, UniProt I1RWY4); assay type: biochemical; conditions: apparent, 0.1 mM DCIP as acceptor, 50 mM HEPES pH 7.0, 35 °C
T1 construct: gene FGRAMPH1_01T10923

MoChi7A = target: T2, MoChi7A (Pyricularia oryzae, UniProt G4NAH7); assay type: biochemical; conditions: apparent; O2 as acceptor; 50 mM NaOAc pH 5.2, 35 °C; read-out: Enzyme / MoChi7A / Cellotriose
T2 construct: gene MGG_09717

FgCelDH7C [2] = target: T1, FgCelDH7C; assay type: binding; conditions: covalent; mono-covalent histidyl tether
FgChi7B = target: T3, FgChi7B (Fusarium graminearum, UniProt A0A098DND1); conditions: covalent; bi-covalent, 6-S-cysteinyl C162 and 8alpha-N1-histidyl H102
T3 construct: gene FGRAMPH1_01T15319
T3 sequence (A0A098DND1 21-504 limits assumed): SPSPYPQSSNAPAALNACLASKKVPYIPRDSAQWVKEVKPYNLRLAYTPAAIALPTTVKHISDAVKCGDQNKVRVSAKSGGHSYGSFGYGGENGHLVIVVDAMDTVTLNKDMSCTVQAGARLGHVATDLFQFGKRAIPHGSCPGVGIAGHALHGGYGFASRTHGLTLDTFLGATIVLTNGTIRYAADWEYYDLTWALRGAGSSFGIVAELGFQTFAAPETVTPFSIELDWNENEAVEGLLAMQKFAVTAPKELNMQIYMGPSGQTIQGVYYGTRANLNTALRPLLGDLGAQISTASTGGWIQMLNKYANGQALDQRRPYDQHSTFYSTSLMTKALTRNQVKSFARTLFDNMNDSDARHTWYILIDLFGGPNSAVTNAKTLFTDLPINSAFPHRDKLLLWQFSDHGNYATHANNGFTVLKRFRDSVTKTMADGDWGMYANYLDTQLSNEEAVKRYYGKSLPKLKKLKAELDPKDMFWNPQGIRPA

T2 sequence (G4NAH7 21-718 limits assumed): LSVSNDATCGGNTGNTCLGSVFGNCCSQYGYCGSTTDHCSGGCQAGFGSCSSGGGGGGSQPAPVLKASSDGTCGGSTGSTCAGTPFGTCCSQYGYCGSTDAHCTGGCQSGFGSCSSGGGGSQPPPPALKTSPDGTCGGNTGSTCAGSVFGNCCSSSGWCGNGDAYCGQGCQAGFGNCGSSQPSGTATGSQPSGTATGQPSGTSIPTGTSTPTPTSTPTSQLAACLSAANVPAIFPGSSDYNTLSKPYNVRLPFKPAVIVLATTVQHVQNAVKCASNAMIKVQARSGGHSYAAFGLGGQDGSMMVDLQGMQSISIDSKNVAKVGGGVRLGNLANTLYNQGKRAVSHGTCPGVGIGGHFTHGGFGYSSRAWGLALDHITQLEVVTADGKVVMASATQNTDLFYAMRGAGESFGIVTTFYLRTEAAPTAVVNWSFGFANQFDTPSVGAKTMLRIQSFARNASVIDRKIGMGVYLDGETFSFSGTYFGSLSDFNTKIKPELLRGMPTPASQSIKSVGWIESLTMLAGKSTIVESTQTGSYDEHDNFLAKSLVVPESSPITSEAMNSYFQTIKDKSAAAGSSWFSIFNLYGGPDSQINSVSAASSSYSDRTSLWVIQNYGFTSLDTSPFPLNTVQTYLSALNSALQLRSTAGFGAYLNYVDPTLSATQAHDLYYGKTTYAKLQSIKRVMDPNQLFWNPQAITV
T1 sequence (I1RWY4 24-499 limits assumed): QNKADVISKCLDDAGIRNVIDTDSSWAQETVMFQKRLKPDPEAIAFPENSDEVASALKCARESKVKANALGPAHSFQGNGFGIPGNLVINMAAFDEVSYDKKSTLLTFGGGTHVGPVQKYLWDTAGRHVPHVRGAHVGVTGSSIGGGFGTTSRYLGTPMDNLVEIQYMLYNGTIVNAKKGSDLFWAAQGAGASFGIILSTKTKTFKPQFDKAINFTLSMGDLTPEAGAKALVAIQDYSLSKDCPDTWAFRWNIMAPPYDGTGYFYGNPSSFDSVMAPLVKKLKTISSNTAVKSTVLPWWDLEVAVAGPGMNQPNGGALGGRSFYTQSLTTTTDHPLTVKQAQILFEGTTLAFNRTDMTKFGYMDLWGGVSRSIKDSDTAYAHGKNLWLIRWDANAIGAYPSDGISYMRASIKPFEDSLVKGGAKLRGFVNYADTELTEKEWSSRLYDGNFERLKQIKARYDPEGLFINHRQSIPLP

OC[C@H]1O[C@@H](O[C@H]2[C@H](O)[C@@H](O)C(O)O[C@@H]2CO)[C@H](O)[C@@H](O)[C@@H]1O (some centres unmarked) [Cellobiose]
Km (FgCelDH7C [1]; read-out: Parameter / Cellobiose): 5350 ± 390 µM

OC[C@H]1O[C@@H](O[C@H]2[C@H](O)[C@@H](O)[C@H](O[C@H]3[C@H](O)[C@@H](O)[C@H](O[C@H]4[C@H](O)[C@@H](O)C(O)O[C@@H]4CO)O[C@@H]3CO)O[C@@H]2CO)[C@H](O)[C@@H](O)[C@@H]1O (some centres unmarked) [Cellotetraose]
Km (FgCelDH7C [1]; read-out: Enzyme / PbChi7A / Cellotetraose): 6060 ± 270 µM

OC[C@H]1O[C@@H](O[C@H]2[C@H](O)[C@@H](O)[C@H](O[C@H]3[C@H](O)[C@@H](O)C(O)O[C@@H]3CO)O[C@@H]2CO)[C@H](O)[C@@H](O)[C@@H]1O (some centres unmarked) [Cellotriose]
Km (FgCelDH7C [1]; read-out: Enzyme / Cellotriose, read-out: Enzyme / MoChi7A / Cellotriose): 3940 ± 220 µM

CC(=O)N[C@H]1[C@H](O[C@H]2[C@H](O)[C@@H](NC(C)=O)C(O)O[C@@H]2CO)O[C@H](CO)[C@@H](O)[C@@H]1O (some centres unmarked) [Chitobiose]
Km (MoChi7A): 64 ± 10 µM

Cc1cc2nc3c(=O)[nH]c(=O)nc-3n(C[C@H](O)[C@H](O)[C@H](O)COP(=O)(O)OP(=O)(O)OC[C@H]3O[C@@H](n4cnc5c(N)ncnc54)[C@H](O)[C@@H]3O)c2cc1C [FAD]
crystal structure, 1.6 Å (FgCelDH7C [2]): FgCelDH7C is mono-covalently histidyl-tethered due to the substitution of the FAD-tethering cysteine to a glycine
crystal structure, 2.4 Å (FgChi7B): isoalloxazine ring of the FAD cofactor in FgChi7B is bi-covalently anchored at the C6 atom

CC(=O)N[C@H]1C(O)O[C@H](CO)[C@H](O)[C@@H]1O (some centres unmarked) [GalNAc]
Km (MoChi7A): 1690 ± 120 µM

CC(=O)N[C@H]1C(O)O[C@H](CO)[C@@H](O)[C@@H]1O (some centres unmarked) [GlcNAc]
Km (MoChi7A): 800 ± 50 µM
